Results as given in patent US9205070B2, “Chelation suppository for improved drug delivery” (APPLIED BIORESEARCH, INC., priority 2013, dated 2015).
Like-named read-outs stand apart in the source and are kept apart here.

What was measured:
[1] = rat
Excerpt: The conclusive measure of bioavailability is to measure the drug blood levels (or levels in some other body fluid) after administration to human test subjects.
See Rabau M Y, Baratz M, Rozen P, “Na2 ethylenediaminetetraacetic acid retention enema in dogs. Biochemical and histological response”.

[2] = aqueous composition containing MBK, pH 7.0 and pH 9.6, after 5 hours
Method: Cells in the digestive track, such as CACO-2 cells are typically used to model absorption in the small intestine. CACO-2 cells, developed by the Sloan-Kettering Institute from human epithelial colorectal adenocarcinoma cells, are widely used to predict drug absorption. […] permeability assay (PAMPA) uses an artificial cell membrane to model drug permeability. In either test, the drug is dissolved in an aqueous solution mimicking the target gastric fluid. The fluid is contacted with the membrane, and the passage of the drug through the membrane over a period of time is used to assess permeability.
PAMPA measures how quickly the drug can exit a water-solvated environment and pass through a cell membrane. Since most drugs are hydrophobic, it is expected that there will be significant absorption by the cells lining the digestive tract.

[3] = dogs, aqueous solution, rectal; cited from earlier work
[4] = Group C, rectal suppository with MBK excipient, mean

Row | SMILES | AUC ([1]; Group B, intravenous, mean) | AUC Inf ([1]; Group B, intravenous, mean) | Cmax ([1]; Group B, intravenous, mean) | Halflife ([1]; Group B, intravenous, mean) | Tmax ([1]; Group B, intravenous, mean) | AUC [1, 4] | AUC Inf [1, 4] | Cmax [1, 4] | drug absorbed ([1]; suppository with MBK as the excipient, within eight hours) | passage of drug through the artificial cell membrane [2] | absorption [3]
1 | O=C([O-])CN(CCN(CC(=O)[O-])CC(=O)[O-])CC(=O)[O-].[Ca+2].[Na+].[Na+] [CaNa2EDTA, calcium disodium ethylenediaminetetraacetate] | 1860 ng·h/mL | 1910 ng·h/mL | 2070 ng/mL | 90 min | 4.98 min | 105800 ng·h/mL | 307300 ng·h/mL | 30600 ng/mL | over 36.3% | no drug was found to have passed through the artificial cell membrane | –
2 | O=C(O)CN(CCN(CC(=O)O)CC(=O)O)CC(=O)O [EDTA] | – | – | – | – | – | – | – | – | – | – | ~13%
